Test results taken from patent EP4169506B1, “PALMITOYLETHANOLAMIDE-BASED COMPOSITION IN THE FORM OF POWDERS WITH HIGH ENTERIC BIOACCESSIBILITY” (Geofarma S.r.l., priority 2021, dated 2023).

Experiment: Dispersion in tap water, then in simulated gastric and enteric liquid (GSF, FaSSIF V2)
Format: physicochemical
Conditions: 500 mg in 100 ml tap water, then GSF and FaSSIF V2, 37°C, 250 rpm, magnetic stirring (Figure 10)
Description: • Figure 1. Representative image of the in vitro model of intestinal epithelium, with the Caco-2 cell monolayer grown on a Transwell® insert. • Figure 2. (A) Electron micrograph of enterocytes forming the Caco-2 monolayer with the microvilli and occluding junctions highlighted; (B) Confocal microscopy images highlighting the occluding junctions (red) and cell nuclei (blue). • Figure 3. Dimensional distribution of PEAMag®, normast® MPS microgranules and PEA of the invention measured by DLS at the end of the digestive process in vitro. • Figure 4. Bioaccessibility (A) and excreted fraction (B) of the PEA present in the three formulations, following exposure to the digestive process (* p<0.05). • Figure 5. Cell viability of intestinal epithelia exposed to digestive fluids in the absence of the formulations (0%) and increasing concentrations of PEAMag® (A), normast® MPS microgranules (B) and PEA of the invention (C) for 3 h (*cell viability < 70%). • Figure 6. TEER of intestinal epithelia exposed to digestive fluids in the absence of the formulations (0%) and increasing concentrations of PEAMag® (A), normast® MPS microgranules (B) and PEA of the invention (C) for 3 h. • Figure 7. […]

CCCCCCCCCCCCCCCC(=O)NCCO [PEA, Palmitoylethanolamide]
dispersion behaviour: emergence of the PEA on the surface of the liquid
